Reference: patent publication US9932331B2, “Phenyl tetrahydroisoquinoline compound substituted with heteroaryl” (TAISHO PHARMACEUTICAL CO., LTD, priority 2014, dated 2018)
Where a name gives a salt, the structure may show the parent alone.

Experiments:
SD rat = assay: 32P-phosphate oral loading test using SD rat (phosphorus absorption inhibitory effect); assay type: in vivo; conditions: Rattus norvegicus, 0.5 h, SD male rats, plasma radioactivity 30 minutes after 32P-phosphate solution, vs control group, read-out: Rate of inhibition of phosphate absorption; for inhibition in vivo at 3 mg/kg: oral dose 3 mg/kg
Description: Phosphorus Absorption Inhibitory Effect of the Compound of the Present Invention in ^32P-Phosphate Oral Loading Test Using SD Rat
8-week-old SD male rats (Japan SLC, Inc.) were used as laboratory animals. Each test compound was suspended or dissolved at a concentration of 0.2 mg/mL or 0.6 mg/mL in Japanese Pharmacopoeia water for injection (manufactured by Hikari Pharmaceutical Co., Ltd.) and orally administered to each rat at a dose of 5 ml/kg body weight. Japanese Pharmacopoeia water for injection was administered at the same dose as above to a control group. 5 minutes after the administration of the test compound or water for injection, a phosphate solution (1.3 mM NaH2PO4) containing 32P-phosphate (PerkinElmer Inc.) was administered thereto at a dose of 5 ml/kg. 30 minutes after the administration of the phosphate solution, blood was collected from the tail vein, and the blood sample was immediately mixed with EDTA-2K (manufactured by Dojindo Laboratories). Then, the mixture was centrifuged at 3000 rpm at 4° C. for 10 minutes to recover plasma.
The radioactivity in 100 μL of the plasma was measured using a liquid scintillation counter and used as a phosphate absorption count. The radioactivity in the plasma of the control group was used as a control, and the rate of inhibition of phosphate absorption was determined according to the following expression: Rate of inhibition of phosphate absorption (%)=(1−Phosphate absorption count of the test compound administration group/Phosphate absorption count of the control group)×100 (2) Results

human NHE3 = target: T1, human NHE3 (Homo sapiens, UniProt P48764); assay: NHE3 inhibition test (recovery of intracellular pH in cell line stably expressing human NHE3); assay type: cell-based; conditions: OK cells deficient in endogenous NHE stably expressing human NHE3; BCECF fluorescence, initial rate of pH recovery; read-out: human NHE3 inhibitory activity IC50
T1 sequence (P48764 26-834): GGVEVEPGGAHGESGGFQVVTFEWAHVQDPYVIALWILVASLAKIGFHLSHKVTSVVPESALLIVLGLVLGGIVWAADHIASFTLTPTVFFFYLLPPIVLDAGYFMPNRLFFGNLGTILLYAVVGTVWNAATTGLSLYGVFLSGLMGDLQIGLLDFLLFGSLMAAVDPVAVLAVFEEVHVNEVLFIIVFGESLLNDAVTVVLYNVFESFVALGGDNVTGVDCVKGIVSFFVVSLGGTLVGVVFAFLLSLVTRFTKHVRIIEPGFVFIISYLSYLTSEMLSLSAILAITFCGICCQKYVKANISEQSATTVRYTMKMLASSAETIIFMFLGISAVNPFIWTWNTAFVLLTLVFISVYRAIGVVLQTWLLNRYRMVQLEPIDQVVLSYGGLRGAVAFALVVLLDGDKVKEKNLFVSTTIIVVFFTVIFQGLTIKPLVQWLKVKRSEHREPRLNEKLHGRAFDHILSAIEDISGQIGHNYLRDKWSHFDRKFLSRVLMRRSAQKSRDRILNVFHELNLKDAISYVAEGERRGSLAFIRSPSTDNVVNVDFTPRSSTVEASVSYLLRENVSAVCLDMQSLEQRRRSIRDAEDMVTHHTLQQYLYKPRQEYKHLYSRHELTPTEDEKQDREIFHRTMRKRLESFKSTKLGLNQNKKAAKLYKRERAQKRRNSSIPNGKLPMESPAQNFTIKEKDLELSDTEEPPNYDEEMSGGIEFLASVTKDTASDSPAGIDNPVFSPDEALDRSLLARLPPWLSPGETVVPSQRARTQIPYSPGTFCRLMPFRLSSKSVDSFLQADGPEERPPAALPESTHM
Procedure, shortened: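 Opossum kidney cells lacking endogenous NHE, stably expressing human NHE3, loaded with BCECF-AM and acid-loaded by NH4Cl washout. Compound in Na-free buffer, then Na-containing buffer (pH 7.4) added; initial pH-recovery rate by BCECF fluorescence, IC50 versus no-compound recovery.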

Compound	IC50 (human NHE3) [nM]	inhibition in vivo at 1 mg/kg (SD rat; oral dose 1 mg/kg) [%]	inhibition in vivo at 3 mg/kg (SD rat) [%]
CN1Cc2c(Cl)cc(Cl)cc2[C@H](c2cccc(-c3cn(CCOCCOCCOCCNC(=O)NCCCCNC(=O)NCCOCCOCCOCCn4cc(-c5cccc([C@@H]6CN(C)Cc7c(Cl)cc(Cl)cc76)c5)nn4)nn3)c2)C1 [Example 6-2, 1,1′-Butane-1,4-diylbis {3-[2-(2-{2-[2-(4-{3-[(4S)-6,8-dichloro-2-methyl-1,2,3,4-tetrahydroisoquinolin-4-yl]phenyl}-1H-1,2,3-triazol-1-yl)ethoxy]ethoxy}ethoxy)ethyl]urea}hydrochloride]	5.7	47	–
CN1Cc2c(Cl)cc(Cl)cc2[C@H](c2cccc(-c3cn(CCOCCOCCNC(=O)COCC(=O)NCCOCCOCCn4cc(-c5cccc([C@@H]6CN(C)Cc7c(Cl)cc(Cl)cc76)c5)nn4)nn3)c2)C1 [Example 6-4, 1-(4-{3-[(4S)-6,8-Dichloro-2-methyl-1,2,3,4-tetrahydroisoquinolin-4-yl]phenyl}-1H-1,2,3-triazol-1-yl)-N-(2-{2-[2-(4-{3-[(4S)-6,8-dichloro-2-methyl-1,2,3,4-tetrahydroisoquinolin-4-yl]phenyl}-1H-1,2,3-triazol-1-yl)ethoxy]ethoxy}ethyl)-10-oxo-3,6,12-trioxa-9-azatetradecan-14-amide hydrochloride]	97.6	–	-5
CN1Cc2c(Cl)cc(Cl)cc2[C@H](c2cccc(-c3cn(CCOCCOCCNC(=O)Nc4ccc(NC(=O)NCCOCCOCCn5cc(-c6cccc([C@@H]7CN(C)Cc8c(Cl)cc(Cl)cc87)c6)nn5)cc4)nn3)c2)C1 [Example 6-5, 1,1′-Benzene-1,4-diylbis[3-(2-{2-[2-(4-{3-[(4S)-6,8-dichloro-2-methyl-1,2,3,4-tetrahydroisoquinolin-4-yl]phenyl}-1H-1,2,3-triazol-1-yl)ethoxy]ethoxy}ethyl)urea]hydrochloride]	9.5	–	46
CN1Cc2c(Cl)cc(Cl)cc2[C@H](c2cccc(-c3cn(CCOCCOCCOCCNC(=O)[C@@H](O)[C@H](O)[C@H](O)[C@@H](O)C(=O)NCCOCCOCCOCCn4cc(-c5cccc([C@@H]6CN(C)Cc7c(Cl)cc(Cl)cc76)c5)nn4)nn3)c2)C1 [Example 6-8, (2R,3S,4R,5S)—N,N′-Bis[2-(2-{2-[2-(4-{3-[(4S)-6,8-dichloro-2-methyl-1,2,3,4-tetrahydroisoquinolin-4-yl]phenyl}-1H-1,2,3-triazol-1-yl)ethoxy]ethoxy}ethoxy)ethyl]-2,3,4,5-tetrahydroxyhexanediamide hydrochloride]	0.8	–	34
CN1Cc2c(Cl)cc(Cl)cc2[C@H](c2cccc(-c3cn(CCOCCOCCOCCOCCNC(=O)[C@H](O)[C@@H](O)C(=O)NCCOCCOCCOCCOCCn4cc(-c5cccc([C@@H]6CN(C)Cc7c(Cl)cc(Cl)cc76)c5)nn4)nn3)c2)C1 [Example 6-9, (2R,3R)—N,N′-Bis[14-(4-{3-[(4S)-6,8-dichloro-2-methyl-1,2,3,4-tetrahydroisoquinolin-4-yl]phenyl}-1H-1,2,3-triazol-1-yl)-3,6,9,12-tetraoxatetradec-1-yl]-2,3-dihydroxybutanediamide hydrochloride]	4.1	–	53
CN1Cc2c(Cl)cc(Cl)cc2[C@H](c2cccc(-c3cn(CCOCCOCCOCCOCCOCCNC(=O)[C@H](O)[C@@H](O)C(=O)NCCOCCOCCOCCOCCOCCn4cc(-c5cccc([C@@H]6CN(C)Cc7c(Cl)cc(Cl)cc76)c5)nn4)nn3)c2)C1 [Example 6-10, (2R,3R)—N,N′-Bis[17-(4-{3-[(4S)-6,8-dichloro-2-methyl-1,2,3,4-tetrahydroisoquinolin-4-yl]phenyl}-1H-1,2,3-triazol-1-yl)-3,6,9,12,15-pentaoxaheptadec-1-yl]-2,3-dihydroxybutanediamide hydrochloride]	6.2	–	38
CN1Cc2c(Cl)cc(Cl)cc2[C@H](c2cccc(-c3cn(CCOCCOCCOCCOCCNC(=O)[C@@H](O)[C@H](O)[C@H](O)[C@@H](O)C(=O)NCCOCCOCCOCCOCCn4cc(-c5cccc([C@@H]6CN(C)Cc7c(Cl)cc(Cl)cc76)c5)nn4)nn3)c2)C1 [Example 6-11, (2R,3S,4R,5S)—N,N′-Bis[14-(4-{3-[(4S)-6,8-dichloro-2-methyl-1,2,3,4-tetrahydroisoquinolin-4-yl]phenyl}-1H-1,2,3-triazol-1-yl)-3,6,9,12-tetraoxatetradec-1-yl]-2,3,4,5-tetrahydroxyhexanediamide hydrochloride]	1.4	–	33
CN1Cc2c(Cl)cc(Cl)cc2[C@@H](c2cccc(-c3cn(CCOCCOCCOCCOCCOCCNC(=O)[C@H](O)[C@@H](O)[C@@H](O)[C@H](O)C(=O)NCCOCCOCCOCCOCCOCCn4cc(-c5cccc([C@@H]6CN(C)Cc7c(Cl)cc(Cl)cc76)c5)nn4)nn3)c2)C1 [Example 6-12, (2R,3S,4R,5S)—N-[17-(4-{3-[(4R)-6,8-Dichloro-2-methyl-1,2,3,4-tetrahydroisoquinolin-4-yl]phenyl}-1H-1,2,3-triazol-1-yl)-3,6,9,12,15-pentaoxaheptadec-1-yl]-N′-[17-(4-{3-[(4S)-6,8-dichloro-2-methyl-1,2,3,4-tetrahydroisoquinolin-4-yl]phenyl}-1H-1,2,3-triazol-1-yl)-3,6,9,12,15-pentaoxaheptadec-1-yl]2,3,4,5-tetrahydroxyhexanediamide hydrochloride]	2.3	–	37

Now from value to compound, other results behind:

IC50 (human NHE3) [nM]	Compound	inhibition in vivo at 1 mg/kg (SD rat; oral dose 1 mg/kg) [%]	inhibition in vivo at 3 mg/kg (SD rat) [%]
9.4	CN1Cc2c(Cl)cc(Cl)cc2[C@H](c2cccc(-c3cc(NCCOCCOCCNC(=O)NCCCCNC(=O)NCCOCCOCCNc4cc(-c5cccc([C@@H]6CN(C)Cc7c(Cl)cc(Cl)cc76)c5)ncn4)ncn3)c2)C1 [Example 7-2, 1,1′-Butane-1,4-diylbis {3-[2-(2-{2-[(6-{3-[(4S)-6,8-dichloro-2-methyl-1,2,3,4-tetrahydroisoquinolin-4-yl]phenyl}pyrimidin-4-yl)amino]ethoxy}ethoxy)ethyl]urea} tetrahydrochloride]	–	23
0.2	CN1Cc2c(Cl)cc(Cl)cc2[C@H](c2cccc(-c3nnn(CCOCCOCCOCCNC(=O)[C@@H](O)[C@H](O)[C@H](O)[C@@H](O)C(=O)NCCOCCOCCOCCn4nnc(-c5cccc([C@@H]6CN(C)Cc7c(Cl)cc(Cl)cc76)c5)n4)n3)c2)C1 [Example 8-25, (2R,3S,4R,5S)-N,N′-Bis[2-(2-{2-[2-(5-{3-[(4S)-6,8-dichloro-2-methyl-1,2,3,4-tetrahydroisoquinolin-4-yl]phenyl}-2H-tetrazol-2-yl)ethoxy]ethoxy}ethoxy)ethyl]-2,3,4,5-tetrahydroxyhexanediamide hydrochloride]	–	–
2.2	CN1Cc2c(Cl)cc(Cl)cc2[C@H](c2cccc(-c3cc(NCCOCCOCCOCCNC(=O)[C@@H](O)[C@H](O)[C@H](O)[C@@H](O)C(=O)NCCOCCOCCOCCNc4cc(-c5cccc([C@@H]6CN(C)Cc7c(Cl)cc(Cl)cc76)c5)ncn4)ncn3)c2)C1 [Example 8-26, (2R,3S,4R,5S)-N,N′-Bis{2-[2-(2-{2-[(6-{3-[(4S)-6,8-dichloro-2-methyl-1,2,3,4-tetrahydroisoquinolin-4-yl]phenyl}pyrimidin-4-yl)amino]ethoxy}ethoxy)ethoxy]ethyl}-2,3,4,5-tetrahydroxyhexanediamide hydrochloride]	–	–
13.1	CN1Cc2c(Cl)cc(Cl)cc2[C@H](c2cccc(-c3cn(CCOCCOCCOCCNC(=O)CN(CCN(CC(=O)NCCOCCOCCOCCn4cc(-c5cccc([C@@H]6CN(C)Cc7c(Cl)cc(Cl)cc76)c5)nn4)CC(=O)NCCOCCOCCOCCn4cc(-c5cccc([C@@H]6CN(C)Cc7c(Cl)cc(Cl)cc76)c5)nn4)CC(=O)NCCOCCOCCOCCn4cc(-c5cccc([C@@H]6CN(C)Cc7c(Cl)cc(Cl)cc76)c5)nn4)nn3)c2)C1 [Example 9-1, hydrochloride]	–	–
